# Experimental data reported in patent US20240425457A1, “COMPOSITIONS AND METHODS FOR SUPPRESSING AND/OR TREATING METABOLIC DISEASES AND/OR A CLINICAL CONDITION THEREOF” (CK Biotech Inc., priority 2018, published 2024).
# “Also recorded” adds a separate entry of the source.
# How the values were obtained:
# [1] = tested on: HFD-induced diabetes mice; assay: HFD-induced diabetes mice, A3334 versus rosiglitazone, one 5-day course; assay type: in vivo
# Text: Referring now to FIG. 37A-37E, C57BL/6N mice were fed HFD for 8 weeks to induce diabetes. Then, the mice were maintained on HFD and treated with either 25 mpk A3334 or 25 mpk rosiglitazone (RSG) once per day for next 5 days. Then, the mice were maintained HFD condition without any drug treatments (e.g., A3334 or RSG) for the next several weeks. Rosiglitazone (RSG) is a diabetes drug in thiazolidinedione (TZD) class which works as an insulin sensitizer functioning via binding PPAR in fat cells.
# Referring now to FIG. 45A-45F, C57BL/6N mice were induced diabetes by HFD for 8 weeks, and then treated with A3334 (25 mpk) or RSG (25 mpk) once per day for 5 days starting at week 8 under HFD condition. Animals were sacrificed at week 11.
# [2] = tested on: Wnt/β-catenin signaling; assay: Wnt/β-catenin signaling (TOPFlash) reporter luciferase assay in HEK293-TOP cells; assay type: cell-based
# Description: Luciferase reporter assay. HEK293-TOP cells were seeded in 24-well plates. Cells were treated with A3334 at a concentration of 1, 5, and 10 μM for 24 h. Total cell lysates were extracted with 35 μl of 5× Reporter Lysis Buffer per well according to the manufacturer's instructions (Promega). A total of 35 μl of luciferin was added and luciferase activity was measured using a Fluorstar Optima microplate reader.
# Wnt/β-catenin signaling reporter luciferase assay. HEK293-TOP cells were seeded were seeded in 96-well plates at a density of 2.5×10^4 cells per well. Cells were treated with individual chemicals at a concentration of 1, 5, 10 µM for 24 h. Total cell lysates were extracted with 25 µl of 5× Reporter Lysis Buffer per well according to the manufacturer's instruction (Promega, Madison, WI). Luciferin (25 µl) was added and luciferase activity was measured using FLUOSTAR (BMG labtech, Offenburg, Germany).
# [3] = tested on: HFD+STZ-induced diabetes mice; assay: HFD-fed and STZ-induced diabetes mice; assay type: in vivo
# Text: Animals. The generation of Cxxc5^−/− mice has been described previously. Cxxc5 heterozygous mice were intercrossed for four generations to obtain littermate wild-type and Cxxc5^−/− mice and were maintained on a C57BL/6 background. Six-week-old Cxxc5^+/+ and Cxxc5^−/− mice were fed HFD for 8 weeks. Wild-type male C57BL/6 mice (KOATECH, Seoul, Korea) were fed HFD consisting of 60% calories from fat (Research Diet, D12492) for 8 weeks. To validate that the insulin resistance mouse model was successfully established, fasting glucose levels were assessed with a One Touch Ultra glucometer (LifeScan). Subsequently, each HFD-fed mouse with a fasting glucose level higher than 16.7 mmol/L was orally administered A3334 (25 mg kg^−1), sitagliptin (50 mg kg^−1), or metformin (100 mg kg^−1) each day for 5 days at weeks 8 and 12. After the removal of the drugs, mice were maintained for 3 weeks on the HFD. To monitor pancreas regeneration, six-week-old Cxxc5^+/+ and Cxxc5^−/− mice were fed an HFD as above. After dietary treatment for 4 weeks, the mice were intraperitoneally injected with STZ (50 mg/kg/d) for 1 week and the control group were injected with saline. After 2 weeks, Cxxc5^+/+ mice were administered A3334 (25 mg kg^−1) and sitagliptin (50 mg kg^−1) per day by oral gavage for 4 weeks. For GTT or ITT, mice were injected with D-glucose (1.5 g/kg body weight) after overnight starvation or human insulin (0.75 units/kg body weight) after 4 h starvation, respectively. Tail blood was drawn at 0, 15, 30, 60, 120, 180 min intervals and blood glucose level was measured with a One Touch Ultra glucometer. All mice were maintained under temperature-controlled and light-controlled (standard 12 h light/dark cycle) conditions and provided with food and water ad libitum. All protocols were reviewed and approved by the Institutional Review Board of Severance Hospital, Yonsei University College of Medicine (09-013).
# β-Cell and α-cell mass analyses. All of the β-cell, α-cell and the cross-sectional area of all pancreatic tissue were quantified. Total β-cell and α-cell area and total pancreas mass for each animal was calculated as the sum of the determinations from each of the 8-10 segments of pancreas. A total of 10-15 beta cells was counted for each pancreas.
# A3334 suppressed diabetes induced by multiple low-dose STZ-induced diabetes. Referring now to FIG. 40A-40G, C57BL/6N mice were induced diabetes by HFD for 8 weeks, and induced diabetes by injection of 50 mpk streptozotosin (STZ) for 1 week. After 2 weeks, A3334 (25 mpk) or SITA (25 mpk) was applied for 4 more weeks, histological analyses of pancreas were done.
# [4] = 25 mpk, 5 days from week 8, sacrifice week 11
# [5] = HFD 8 weeks, then 25 mpk once per day for 5 days
structure (smiles),measurement,setting,value
"COc1ccc2c(c1)/C(=C1/Nc3ccccc3/C1=N\O)C(=O)N2 [Compound A3334, 5-Methoxyindirubin-3′-oxime]",liver steatosis,[1]; [4],suppressed by A3334
same,mRNA levels of lipogenesis markers in liver,[1]; [4],suppressed by A3334
same,serum insulin and total cholesterol levels,[1]; [4],abolished by A3334
same,ALT and AST in blood serum,[1]; [5],not evident
same,GTT and ITT,[1]; [5],significant reduction of both GTT and ITT
same,body weight gain,[1]; [5],suppressed the body weight gain induced by HFD
same,fasting glucose level after termination of drug treatment,[1]; [5],maintained at low level for several weeks
same,"CXXC5, β-catenin, crown like structures, PPARγ and macrophage markers","[1]; HFD 8 weeks, then 25 mpk once per day for 5 days, immunostaining","suppressed overexpression of CXXC5, increased expressions of β-catenin, suppressed formation of crown like structures (CRC), and suppressed the expression of PPARγ and macrophage markers"
same,PPARγ mRNA level,"[1]; white adipose tissue, 25 mpk",not increased by A3334
same,mRNA of M1 and M2 macrophage markers,"[1]; white adipose tissue, 25 mpk","decreased and increased by A3334, respectively"
same,"mRNA of Wnt/β-catenin signaling target genes (Dvl1, Wisp1, Fosl1)","[1]; white adipose tissue, 25 mpk",increased by A3334
same,Wnt/β-catenin (TOPFlash) reporter activity,[2],dose-dependent increment of the TOPFlash reporter activity
same,body weight,[3],slightly increased
same,proliferative status of β-cells (PCNA+),[3],exhibited normal proliferative status after the A3334 treatment
same,glucose tolerance test and insulin tolerance test,[3]; 4 weeks p.o.,improved the results from the glucose tolerance test (GTT) and insulin tolerance test (ITT)
same,blood / fasting glucose level,"[3]; A3334 25 mpk, SITA 25 mpk, 4 weeks",lowered the glucose level; also recorded: more significantly lowered by A3334 compared to that by SITA
same,β-cell and α-cell mass,[3]; IHC insulin and glucagon,"increased and decreased, respectively, by the A3334 treatment"
same,"pancreatic islets / β-cells (insulin, β-catenin, PCNA, Pdx-1)",[3]; histology/IHC,"restores β-cell mass and functions; also recorded: showed normal islets with insulin secretion and increased expression levels of β-catenin, PCNA, and Pdx-1; also recorded: mostly protected with the A3334 treatment"
